Here are results for 24 molecules from ChEMBL document CHEMBL4270663, “6-Benzhydryl-4-amino-quinolin-2-ones as Potent Cannabinoid Type 1 (CB1) Receptor Inverse Agonists and Chemical Modifications for Peripheral Selectivity” (J Med Chem, 2018).

Each structure is given as a SMILES string. The source made the active and inactive calls. The calls are words filed in the database; no cut-off is given here. A value given as a limit tells only on which side of the number the result lay.

One data set concerns the target Cannabinoid receptor 1 (Homo sapiens, UniProt P21554). Kind of data set: Inverse agonist activity at human CB1 receptor expressed in HEK293 cells assessed as inhibition of forskolin-induced cAMP accumulation after 30 mins by HTRF assay. In kind it is functional, cell-based.
The target of the next data set is Cannabinoid receptor 2 (Homo sapiens, UniProt P34972). Kind of data set: Inverse agonist activity at human CB2 receptor expressed in HEK293 cells assessed as […] cAMP accumulation after 30 mins by HTRF assay. The data set is classed as functional, cell-based.
Sequence of Cannabinoid receptor 2 (P34972 whole entry): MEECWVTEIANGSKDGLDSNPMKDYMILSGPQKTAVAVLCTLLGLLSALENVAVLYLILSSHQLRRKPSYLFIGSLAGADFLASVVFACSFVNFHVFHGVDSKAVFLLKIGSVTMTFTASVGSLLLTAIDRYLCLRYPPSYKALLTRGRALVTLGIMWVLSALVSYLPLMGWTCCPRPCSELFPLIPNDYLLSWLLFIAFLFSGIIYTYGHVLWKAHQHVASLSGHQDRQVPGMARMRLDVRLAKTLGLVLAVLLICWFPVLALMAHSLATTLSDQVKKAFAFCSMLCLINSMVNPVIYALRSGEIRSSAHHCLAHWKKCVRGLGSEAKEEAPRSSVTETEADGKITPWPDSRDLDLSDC
In a further data set the target is Cytochrome P450 2C9 (Homo sapiens, UniProt P11712). Put plainly: Inhibition of CYP2C9 in human liver microsomes using tolbutamide as substrate after 10 to 30 mins by LC/MS analysis. The data set is classed as ADME.
Sequence of Cytochrome P450 2C9 (P11712 whole entry): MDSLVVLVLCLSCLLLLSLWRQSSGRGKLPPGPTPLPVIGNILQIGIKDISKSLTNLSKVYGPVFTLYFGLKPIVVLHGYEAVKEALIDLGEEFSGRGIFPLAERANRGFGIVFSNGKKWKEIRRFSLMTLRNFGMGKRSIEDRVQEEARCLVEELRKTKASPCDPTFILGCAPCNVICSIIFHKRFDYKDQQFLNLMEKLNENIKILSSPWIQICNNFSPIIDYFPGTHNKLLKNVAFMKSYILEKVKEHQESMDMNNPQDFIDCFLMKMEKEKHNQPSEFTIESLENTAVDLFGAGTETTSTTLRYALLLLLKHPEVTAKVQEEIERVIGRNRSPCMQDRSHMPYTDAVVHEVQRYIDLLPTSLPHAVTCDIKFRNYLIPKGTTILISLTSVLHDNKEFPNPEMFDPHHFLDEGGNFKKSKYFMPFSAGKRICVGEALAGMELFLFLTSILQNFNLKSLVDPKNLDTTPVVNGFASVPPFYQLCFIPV
The target in a further data set is Cytochrome P450 2D6 (Homo sapiens, UniProt P10635). Put plainly: Inhibition of CYP2D6 in human liver microsomes using dextromethorphan as substrate after 10 to 30 mins by LC/MS analysis. The data set is classed as ADME.
Sequence of Cytochrome P450 2D6 (P10635 whole entry): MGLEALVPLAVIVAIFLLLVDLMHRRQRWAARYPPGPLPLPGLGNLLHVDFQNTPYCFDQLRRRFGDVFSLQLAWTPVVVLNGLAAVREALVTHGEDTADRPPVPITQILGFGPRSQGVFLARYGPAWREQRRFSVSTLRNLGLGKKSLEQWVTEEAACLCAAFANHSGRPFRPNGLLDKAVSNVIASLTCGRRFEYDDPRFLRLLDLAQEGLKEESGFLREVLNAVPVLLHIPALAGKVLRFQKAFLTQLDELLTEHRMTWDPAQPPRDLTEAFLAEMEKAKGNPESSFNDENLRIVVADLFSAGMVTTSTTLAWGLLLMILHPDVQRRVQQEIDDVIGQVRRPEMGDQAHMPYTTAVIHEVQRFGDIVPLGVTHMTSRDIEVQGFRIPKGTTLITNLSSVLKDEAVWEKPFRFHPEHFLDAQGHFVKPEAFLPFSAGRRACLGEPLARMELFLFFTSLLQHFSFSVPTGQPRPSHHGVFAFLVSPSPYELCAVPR
The next data set has as its target Cytochrome P450 3A4 (Homo sapiens, UniProt P08684). Kind of data set: Inhibition of CYP3A4 in human liver microsomes using midazolam/testosterone as substrate after 10 to 30 mins by LC/MS analysis. The data set is classed as ADME.
The next data set concerns the target Cytochrome P450 2C19 (Homo sapiens, UniProt P33261). Put plainly: Inhibition of CYP2C19 in human liver microsomes using (S)-mephenytoin as substrate after 10 to 30 mins by LC/MS analysis. The data set is classed as ADME.
For another data set, the target named is T1, Cytochrome P450 1A2 (Homo sapiens, UniProt P05177).
T1 sequence (P05177 whole entry): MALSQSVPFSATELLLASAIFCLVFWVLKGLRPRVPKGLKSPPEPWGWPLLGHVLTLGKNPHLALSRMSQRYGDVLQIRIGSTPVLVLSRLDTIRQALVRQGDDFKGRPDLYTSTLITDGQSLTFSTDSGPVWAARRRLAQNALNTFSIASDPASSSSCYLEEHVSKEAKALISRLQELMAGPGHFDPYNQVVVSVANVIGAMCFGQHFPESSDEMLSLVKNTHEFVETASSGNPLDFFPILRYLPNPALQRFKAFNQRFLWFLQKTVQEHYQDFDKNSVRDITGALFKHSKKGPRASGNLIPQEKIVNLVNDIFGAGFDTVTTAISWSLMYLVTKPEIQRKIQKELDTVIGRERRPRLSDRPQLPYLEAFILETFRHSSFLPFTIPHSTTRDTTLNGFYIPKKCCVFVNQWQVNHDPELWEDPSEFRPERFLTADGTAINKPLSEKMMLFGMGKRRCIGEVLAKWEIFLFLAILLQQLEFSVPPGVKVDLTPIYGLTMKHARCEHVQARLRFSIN
Put plainly: Inhibition of CYP1A2 in human liver microsomes using phenacetin as substrate after 10 to 30 mins by LC/MS analysis. The data set is classed as ADME.

Data set [1] in a line: Drug uptake in plasma of diet-induced obese C57BL/6J mouse model at 10 mg/kg administered as daily dose measured at 2 hrs post last dose on day 5. In kind it is ADME, organism-based.
Data set [2] relates to Mus musculus. Kind of data set: Antiobesity activity in diet induced obese C57BL/6J mouse model assessed as decrease in body weight at 10 mg/kg administered as daily dose measured every day for 5 days. In kind it is functional, organism-based.
Data set [3] deals with Mus musculus. Put plainly: In vivo receptor occupancy at CB1 receptor in brain of diet induced obese C57BL/6J mouse model at 10 mg/kg, po administered as daily dose for 5 days measured 10 mins post last dose in presence of [3H]-CP-55940 relative to control. The data set is classed as functional.
For data set [4], the system named is Mus musculus. Kind of data set: Antiobesity activity in diet induced obese C57BL/6J mouse model assessed as decrease in food intake at 10 mg/kg administered as daily dose measured every day for 5 days. In kind it is functional, organism-based.
A short description of data set [5]: Drug uptake in brain of diet-induced obese C57BL/6J mouse model at 10 mg/kg administered as daily dose measured at 2 hrs post last dose on day 5. In kind it is ADME, organism-based. The settings on record: in vivo.
Data set [6] in a line: Ratio of drug level in brain to plasma of diet-induced obese C57BL/6J mouse model at 10 mg/kg administered as daily dose measured at 2 hrs post last dose on day 5. The data set is classed as ADME, organism-based. The settings on record: read-out: BPR.
Data set [7] can be described thus: Metabolic stability in human liver microsomes assessed as parent compound remaining at 1 uM after 10 mins in presence of NADPH. In kind it is ADME, microsome. The settings on record: read-out: Stability.
The nature of data set [8]: Metabolic stability in rat liver microsomes assessed as parent compound remaining at 1 uM after 10 mins in presence of NADPH. In kind it is ADME, microsome. The settings on record: read-out: Stability.
Data set [9] in a line: Metabolic stability in mouse liver microsomes assessed as parent compound remaining at 1 uM after 10 mins in presence of NADPH. In kind it is ADME, microsome. The settings on record: read-out: Stability.
A short description of data set [10]: Drug uptake in C57BL/6J mouse plasma at 20 mg/kg, po measured after 4 hrs. In kind it is ADME, organism-based.
A short description of data set [11]: Drug uptake in C57BL/6J mouse brain at 20 mg/kg, po measured after 1 hr. The settings on record: in vivo, BLD = below limit of detection. The data set is classed as ADME, organism-based.
Data set [12] can be described thus: Drug uptake in C57BL/6J mouse plasma at 20 mg/kg, po measured after 1 hr. In kind it is ADME, organism-based.
The nature of data set [13]: Drug uptake in C57BL/6J mouse brain at 20 mg/kg, po measured after 4 hrs. In kind it is ADME, organism-based. The settings on record: in vivo.
Data set [14] in a line: Ratio of drug level in C57BL/6J mouse brain to plasma at 20 mg/kg, po measured after 4 hrs. The data set is classed as ADME, organism-based. The settings on record: read-out: BPR.

Sequence of Cannabinoid receptor 1 (P21554 whole entry): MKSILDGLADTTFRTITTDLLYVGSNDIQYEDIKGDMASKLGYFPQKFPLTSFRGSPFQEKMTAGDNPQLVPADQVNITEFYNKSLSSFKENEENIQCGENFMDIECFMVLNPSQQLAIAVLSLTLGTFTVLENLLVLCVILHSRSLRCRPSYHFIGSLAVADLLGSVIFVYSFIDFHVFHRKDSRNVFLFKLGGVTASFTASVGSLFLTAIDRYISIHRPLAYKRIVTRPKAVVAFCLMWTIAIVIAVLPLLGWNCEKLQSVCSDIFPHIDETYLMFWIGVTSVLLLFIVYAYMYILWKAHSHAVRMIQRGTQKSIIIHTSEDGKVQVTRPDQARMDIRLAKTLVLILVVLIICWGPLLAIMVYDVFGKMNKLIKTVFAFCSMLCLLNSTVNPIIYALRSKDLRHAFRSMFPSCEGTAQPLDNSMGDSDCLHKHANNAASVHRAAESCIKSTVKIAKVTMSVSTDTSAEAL
Sequence of Cytochrome P450 3A4 (P08684 whole entry): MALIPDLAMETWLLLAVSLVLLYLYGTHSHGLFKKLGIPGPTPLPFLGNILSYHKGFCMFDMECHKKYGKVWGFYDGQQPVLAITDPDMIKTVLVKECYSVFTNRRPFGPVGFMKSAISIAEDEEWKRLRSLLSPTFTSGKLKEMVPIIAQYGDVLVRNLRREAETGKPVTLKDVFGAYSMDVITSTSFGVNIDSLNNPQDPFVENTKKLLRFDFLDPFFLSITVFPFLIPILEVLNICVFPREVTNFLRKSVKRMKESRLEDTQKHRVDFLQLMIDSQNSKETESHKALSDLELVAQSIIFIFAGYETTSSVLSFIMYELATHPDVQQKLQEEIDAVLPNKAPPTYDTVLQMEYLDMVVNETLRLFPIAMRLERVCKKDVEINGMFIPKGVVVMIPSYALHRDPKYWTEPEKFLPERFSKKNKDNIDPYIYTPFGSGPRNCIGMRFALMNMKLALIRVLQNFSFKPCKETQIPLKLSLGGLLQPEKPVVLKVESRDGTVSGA
Sequence of Cytochrome P450 2C19 (P33261 whole entry): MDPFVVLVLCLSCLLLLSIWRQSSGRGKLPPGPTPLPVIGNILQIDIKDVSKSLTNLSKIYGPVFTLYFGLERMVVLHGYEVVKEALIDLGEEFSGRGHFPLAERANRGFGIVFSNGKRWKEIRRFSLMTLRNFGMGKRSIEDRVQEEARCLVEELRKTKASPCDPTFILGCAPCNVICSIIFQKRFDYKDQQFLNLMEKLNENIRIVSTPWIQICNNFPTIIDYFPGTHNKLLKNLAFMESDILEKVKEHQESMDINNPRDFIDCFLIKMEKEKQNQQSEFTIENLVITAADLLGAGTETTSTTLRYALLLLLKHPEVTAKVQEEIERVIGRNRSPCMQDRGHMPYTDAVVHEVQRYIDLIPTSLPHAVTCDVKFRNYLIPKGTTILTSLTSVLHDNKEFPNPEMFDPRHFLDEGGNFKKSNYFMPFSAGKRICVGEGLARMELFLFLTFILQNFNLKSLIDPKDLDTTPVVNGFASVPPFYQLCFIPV

For the molecule `O=c1cc(/C=C/c2ccccc2)c2cc(C(O)c3ccc(Cl)cc3)ccc2[nH]1` (stereo not given), the EC50 on Cannabinoid receptor 1 was greater than 10000 nM.
Take `COCCCc1cc(C(c2ccc(Cl)cc2)c2ccc(Cl)cc2)cc2c(NC3CCN(S(=O)(=O)C(F)(F)F)CC3)cc(=O)[nH]c12`: the concentration giving a half-maximal response (EC50) at Cannabinoid receptor 2 is 61 nM.
As for `O=c1cc(Cc2ccc(OC(F)(F)F)cc2)c2cc(C(c3ccc(Cl)cc3)n3ccnc3)ccc2[nH]1` (stereo not given), the concentration giving a half-maximal response (EC50) at Cannabinoid receptor 1 worked out at 113 nM.
As for `O=C(O)COc1cc(C(c2ccc(Cl)cc2)c2ccc(Cl)cc2)cc2c(NC3CCN(S(=O)(=O)C(F)(F)F)CC3)ccnc12`, the EC50 on Cannabinoid receptor 2 was greater than 10000 nM.
For the molecule `O=c1cc(NC2CCN(S(=O)(=O)C(F)(F)F)CC2)c2cc(Cc3ccc(Cl)cc3)ccc2[nH]1`, on Cannabinoid receptor 1, the EC50 turned out to be 260 nM.
As to `O=c1cc(/C=C/c2ccc(C(F)(F)F)cc2)c2cc(C(c3ccc(Cl)cc3)c3nccs3)ccc2[nH]1` (stereo not given), the IC50 at Cytochrome P450 2C9, against Cytochrome P450 2D6, on Cytochrome P450 3A4, against Cytochrome P450 2C19 and against Cytochrome P450 1A2 was greater than 10000 nM each time.
Regarding `O=S(=O)(N1CCC(Nc2ccnc3c(O)cc(C(c4ccc(Cl)cc4)c4ccc(Cl)cc4)cc23)CC1)C(F)(F)F`, the EC50 at Cannabinoid receptor 1 amounted to 399 nM.
Take `Cc1c(C(=O)NN2CCCCC2)nn(-c2ccc(Cl)cc2Cl)c1-c1ccc(Cl)cc1` [RIMONABANT]: the concentration at 2 h in data set [1] was 1500 nM. Besides, the result in the data set on Mus musculus [2] and in the data set with Mus musculus [4] was Active. In addition, the Occ in the data set on Mus musculus [3] came out at 81.7%. The Drug uptake in [5] is reported as 1.46 nmol/g. The Kp at 2 h in [6] came to 0.98.
With `O=c1cc(NC2CCN(S(=O)(=O)C(F)(F)F)CC2)c2cc(C(c3ccc(Cl)cc3)c3nccs3)ccc2[nH]1` (stereo not given), the figures for the remaining at 10 min, 1 µM in data set [7], in [8] and in data set [9] were 62.2%, 60.1% and 47.8%, respectively. For the same molecule, the IC50 on Cytochrome P450 2C9 is greater than 10000 nM; on Cytochrome P450 2D6, greater than 10000 nM; against Cytochrome P450 3A4, greater than 10000 nM; against Cytochrome P450 2C19 it was 8000 nM; against Cytochrome P450 1A2, greater than 10000 nM.
As to `O=c1cc([C@@H]2C[C@@H]2c2ccccc2)c2cc(C(c3ccc(Cl)cc3)n3ccnc3)ccc2[nH]1` (stereo not given in full), the EC50 at Cannabinoid receptor 1 is 66 nM.
With `COCCOCCOCCOCCOCCOCCOCCOc1cc(NC2CCN(S(=O)(=O)C(F)(F)F)CC2)c2cc(C(c3ccc(Cl)cc3)c3ccc(Cl)cc3)ccc2n1`, the figures for the EC50 on Cannabinoid receptor 2 and at Cannabinoid receptor 1 were 5900 nM and 457 nM, respectively.
For the molecule `CS(=O)(=O)N1CCC(Nc2cc(=O)[nH]c3ccc(C(c4ccc(Cl)cc4)c4ccc(Cl)cc4)cc23)CC1`, on Cannabinoid receptor 2, the EC50 is greater than 10000 nM.
Take `O=c1cc(N[C@@H]2CCN(S(=O)(=O)C(F)(F)F)C2)c2cc(C(c3ccc(Cl)cc3)c3nccs3)ccc2[nH]1` (stereo not given in full): the remaining at 10 min, 1 µM in data set [7] was 20.4%; in data set [8] it was 27.9%; in [9], 19.1%.
For the molecule `CCOC(=O)CC(=O)N1CCC(Nc2cc(=O)[nH]c3ccc(C(c4ccc(Cl)cc4)c4ccc(Cl)cc4)cc23)CC1`, the EC50 on Cannabinoid receptor 1 worked out at 13.5 nM.
For `O=C(Nc1cc(=O)[nH]c2ccc(C(c3ccc(Cl)cc3)n3ccnc3)cc12)c1ccccc1` (stereo not given), at Cannabinoid receptor 1, the 50% effective concentration (EC50) was greater than 10000 nM.
`O=c1cc(NC2CCN(c3ncccn3)CC2)c2cc(C(c3ccc(Cl)cc3)c3ccc(Cl)cc3)ccc2[nH]1` gave a concentration at 4 h in [10] of 2890 nM. Further, the results for the remaining at 10 min, 1 µM in data set [7], in data set [8] and in [9] were 43%, 69% and 57%, respectively. For the same molecule, the Drug uptake result in data set [11] is “Bld”; in data set [13], 0.107 nmol/g. In addition, in data set [12], the concentration at 1 h is 4160 nM. In addition, the Kp at 4 h in [14] is 0.037.
As for `O=C(O)CCCCCOc1cc(NC2CCN(S(=O)(=O)C(F)(F)F)CC2)c2cc(C(c3ccc(Cl)cc3)c3ccc(Cl)cc3)ccc2n1`, the EC50 at Cannabinoid receptor 2 is 61 nM.
On to `O=C(O)c1cccc(S(=O)(=O)N2CCC(Nc3cc(=O)[nH]c4ccc(C(c5ccc(Cl)cc5)c5ccc(Cl)cc5)cc34)CC2)c1`, for which the EC50 on Cannabinoid receptor 2 was 8690 nM.
With `O=c1cc(CCc2ccccc2)c2cc(C(c3ccc(Cl)cc3)n3ccnc3)ccc2[nH]1` (stereo not given), the EC50 at Cannabinoid receptor 1 was greater than 10000 nM.
For the molecule `COCCOc1cc(NC2CCN(S(=O)(=O)C(F)(F)F)CC2)c2cc(C(c3ccc(Cl)cc3)c3ccc(Cl)cc3)ccc2n1`, the EC50 at Cannabinoid receptor 1 worked out at 22 nM.
As to `O=c1cc(NC2CCN(S(=O)(=O)C(F)(F)F)CC2)c2cc(C(c3ccc(Cl)cc3)n3ccnc3)ccc2[nH]1` (stereo not given), the EC50 on Cannabinoid receptor 1 came to 5 nM.
The same measure, in the same setting: the same measure for `O=c1cc(/C=C/c2ccccc2)c2cc(C(c3ccc(Cl)cc3)n3ccnc3)ccc2[nH]1` (stereo not given): 165 nM; for `O=c1cc(OCc2ccccc2)c2cc(C(c3ccc(Cl)cc3)n3ccnc3)ccc2[nH]1` (stereo not given): 1150 nM.
Take `COc1ccc(C(c2ccc(Cl)cc2)c2ccc3[nH]c(=O)cc(NC4CCN(S(=O)(=O)C(F)(F)F)CC4)c3c2)cc1` (stereo not given): the EC50 at Cannabinoid receptor 1 is 8.4 nM.
